Reference: US12077503B2, “Substituted cyclic amides and their use as herbicides” (FMC CORPORATION, priority 2015, dated 2024)

Key:
Assay type in all cases: in vivo
[1] = test system: barnyardgrass (Echinochloa crus-galli); experiment: Test G Pre-Emergence Protocol; details: Echinochloa crus-galli, pre-emergence, 312 h, evaluated after 13 days
Method in brief: (§1)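 Test compound in 0.5% Tween 20 acetone/water (50:50) was applied at three rates (15.625, 62.5, 250 g/ha) to soil sown one day earlier. After 13 days plants were scored for injury, where 0 means unaffected and 100 means completely damaged.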

corn (Zea mays) [2] = experiment: Test G Pre-Emergence Protocol; details: Zea mays, pre-emergence, 312 h, evaluated after 13 days
Method in brief: as §1

[3] = test system: giant foxtail (Setaria faberi); experiment: Test G Pre-Emergence Protocol; details: Setaria faberi, pre-emergence, 312 h, evaluated after 13 days
Method in brief: as §1

[4] = test system: ivy-leaved morning glory (Ipomoea hederacea); experiment: Test G Pre-Emergence Protocol; details: Ipomoea, pre-emergence, 312 h, evaluated after 13 days
Method in brief: as §1

[5] = test system: redroot pigweed (Amaranthus retroflexus); experiment: Test G Pre-Emergence Protocol; details: Amaranthus retroflexus, pre-emergence, 312 h, evaluated after 13 days
Method in brief: as §1

[6] = test system: velvetleaf (Abutilon theophrasti); experiment: Test G Pre-Emergence Protocol; details: Abutilon theophrasti, pre-emergence, 312 h, evaluated after 13 days
Method in brief: as §1

[7] = test system: barnyardgrass (Echinochloa crus-galli); experiment: Test G Post-Emergence Protocol; details: Echinochloa crus-galli, post-emergence, 312 h, read-out: Barnyardgrass damage rating
Method in brief: (§2)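 Eight days post-sowing, plants received a spray of test compound (acetone/water 50:50, 0.5% Tween 20) at 15.625, 62.5 or 250 g/ha. Glasshouse regime thereafter: 24/16 °C, 14 h light, 65% humidity. Assessment after 13 days on a 0–100 damage scale.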

corn (Zea mays) [8] = experiment: Test G Post-Emergence Protocol; details: Zea mays, post-emergence, 312 h, read-out: Corn damage rating
Method in brief: as §2

[9] = test system: giant foxtail (Setaria faberi); experiment: Test G Post-Emergence Protocol; details: Setaria faberi, post-emergence, 312 h, read-out: Foxtail, Giant damage rating
Method in brief: as §2

[10] = test system: ivy-leaved morning glory (Ipomoea hederacea); experiment: Test G Post-Emergence Protocol; details: Ipomoea, post-emergence, 312 h, read-out: Morningglory, Ivy-leaved damage rating
Method in brief: as §2

[11] = test system: redroot pigweed (Amaranthus retroflexus); experiment: Test G Post-Emergence Protocol; details: Amaranthus retroflexus, post-emergence, 312 h, read-out: Pigweed, Redroot damage rating
Method in brief: as §2

[12] = test system: velvetleaf (Abutilon theophrasti); experiment: Test G Post-Emergence Protocol; details: Abutilon theophrasti, post-emergence, 312 h, read-out: Velvetleaf damage rating
Method in brief: as §2

[13] = 15.625 g ai/ha, evaluated after 13 days (100=total damage to plant; 0=no damage to plant)
[14] = 62.5 g ai/ha, evaluated after 13 days, 100=total damage to plant, 0=no damage to plant
[15] = 250 g ai/ha, evaluated after 13 days, 100=total damage to plant, 0=no damage to plant

With `CN1C[C@@H](c2cccc(I)c2)[C@H](C(=O)Nc2cccc(F)c2F)C1=O` (racemic) [Compound 1754] the pest or weed control at 15.625 g/ha ([1]; 15.625 g ai/ha, read-out: Barnyardgrass damage rating (100=total damage to plant; 0=no damage to plant)) was 60%, the pest or weed control at 62.5 g/ha ([1]; 62.5 g ai/ha, 100=total damage to plant, 0=no damage to plant, read-out: Barnyardgrass damage rating) was 80% and the pest or weed control at 250 g/ha ([1]; 250 g ai/ha, read-out: Barnyardgrass damage rating (100=total damage to plant; 0=no damage to plant)) was 90%. The plant injury at 15.625 g/ha (corn (Zea mays) [2]; 15.625 g ai/ha, read-out: Corn damage rating (100=total damage to plant; 0=no damage to plant)) was 0%, the plant injury at 62.5 g/ha (corn (Zea mays) [2]; 62.5 g ai/ha, 100=total damage to plant, 0=no damage to plant, read-out: Corn damage rating) was 0% and the plant injury at 250 g/ha (corn (Zea mays) [2]; 250 g ai/ha, read-out: Corn damage rating (100=total damage to plant; 0=no damage to plant)) was 80%. For the same compound, the pest or weed control at 15.625 g/ha ([3]; 15.625 g ai/ha, read-out: Foxtail, Giant damage rating (100=total damage to plant; 0=no damage to plant)) was 80%, the pest or weed control at 62.5 g/ha ([3]; 62.5 g ai/ha, 100=total damage to plant, 0=no damage to plant, read-out: Foxtail, Giant damage rating) was 90% and the pest or weed control at 250 g/ha ([3]; 250 g ai/ha, read-out: Foxtail, Giant damage rating (100=total damage to plant; 0=no damage to plant)) was 90%. For the same compound, the pest or weed control at 15.625 g/ha ([4]; 15.625 g ai/ha, read-out: Morningglory, Ivy-leaved damage rating (100=total damage to plant; 0=no damage to plant)) was 0%, the pest or weed control at 62.5 g/ha ([4]; 62.5 g ai/ha, 100=total damage to plant, 0=no damage to plant, read-out: Morningglory, Ivy-leaved damage rating) was 0% and the pest or weed control at 250 g/ha ([4]; 250 g ai/ha, read-out: Morningglory, Ivy-leaved damage rating (100=total damage to plant; 0=no damage to plant)) was 10%. The pest or weed control at 15.625 g/ha ([5]; 15.625 g ai/ha, read-out: Pigweed, Redroot damage rating (100=total damage to plant; 0=no damage to plant)) was 10%, the pest or weed control at 62.5 g/ha ([5]; 62.5 g ai/ha, 100=total damage to plant, 0=no damage to plant, read-out: Pigweed, Redroot damage rating) was 20% and the pest or weed control at 250 g/ha ([5]; 250 g ai/ha, read-out: Pigweed, Redroot damage rating (100=total damage to plant; 0=no damage to plant)) was 60%. It also gave a pest or weed control at 15.625 g/ha ([6]; 15.625 g ai/ha, read-out: Velvetleaf damage rating (100=total damage to plant; 0=no damage to plant)) of 10%, a pest or weed control at 62.5 g/ha ([6]; 62.5 g ai/ha, 100=total damage to plant, 0=no damage to plant, read-out: Velvetleaf damage rating) of 0% and a pest or weed control at 250 g/ha ([6]; 250 g ai/ha, read-out: Velvetleaf damage rating (100=total damage to plant; 0=no damage to plant)) of 30%. For the same compound, the pest or weed control at 15.625 g/ha [7, 13] was 30%, the pest or weed control at 62.5 g/ha [7, 14] was 70% and the pest or weed control at 250 g/ha [7, 15] was 80%. It also gave a plant injury at 15.625 g/ha (corn (Zea mays) [8]; [13]) of 10%, a plant injury at 62.5 g/ha (corn (Zea mays) [8]; [14]) of 60% and a plant injury at 250 g/ha (corn (Zea mays) [8]; [15]) of 70%. It also gave a pest or weed control at 15.625 g/ha [9, 13] of 60%, a pest or weed control at 62.5 g/ha [9, 14] of 80% and a pest or weed control at 15.625 g/ha [10, 13] of 30%. It also gave a pest or weed control at 62.5 g/ha [10, 14] of 70%, a pest or weed control at 250 g/ha [10, 15] of 70% and a pest or weed control at 15.625 g/ha [11, 13] of 0%. The pest or weed control at 62.5 g/ha [11, 14] was 40%, the pest or weed control at 250 g/ha [11, 15] was 70% and the pest or weed control at 15.625 g/ha [12, 13] was 10%. The pest or weed control at 62.5 g/ha [12, 14] was 30% and the pest or weed control at 250 g/ha [12, 15] was 60%.
